The results in this text go back to US20040106545A1, “Compounds and methods for modulating cell adhesion” (priority 1996, published 2004).

As a reminder, the inhibition is the relative decrease from the control value, in per cent.

For assay [1], the system named is Human saphenous vein vascular smooth muscle cells. Put plainly: Vascular smooth muscle cell apoptosis and death in aggregates (agarose-coated wells). Format: cell-based. The settings on record: 0.5 mg/mL. Here is the method: Human saphenous vein vascular smooth muscle cells were explanted from surplus segments of vein from patients undergoing coronary artery bypass surgery. Cells were maintained in Dulbecco's modified essential medium supplemented with […], 2 mmol/L L-glutamine and 10% fetal calf serum and were grown in agarose-coated wells. Under these conditions the cells are unable to attach to the underlying substratum and adhere to one another by cell-cell contacts only, forming aggregates. The percentage of dead cells was assessed by staining with Trypan blue or by fixing the cells and staining with Hoescht (H-33342). Trypan blue stain is absorbed only by non-viable cells when the integrity of the cell membrane is breached (Freshney, R. (1987) Culture of Animal Cells: A Manual of Basic Technique, p. 117, Alan R. Liss, Inc., New York) whereas Hoescht stain enters living cells (Shapiro (1981) Cytometry 2, 143-150).

For assay [2], the target named is L1 (Homo sapiens, UniProt P32004). Put plainly: Neurite outgrowth of rat cerebellar neurons on L1 expressing 3T3 monolayers (Example 15). The format is cell-based. Also noted: expressed in transfected cells; rat cerebellar neurons on top. The settings on record: 125 μg/ml; read-out: % Inhibition of L1 Response. Here is the method:
Cell culture and neurite outgrowth assays. Co-cultures of cerebellar neurons on monolayers of control 3T3 cells and monolayers of transfected 3T3 cells that express physiological levels of chick N-cadherin or human L1 were established as previously described (Williams et al., Neuron 13:583-594, 1994). In brief, 80,000 3T3 cells (control and transfected) were plated into individual chambers of an eight-chamber tissue culture slide coated with polylysine and fibronectin and cultured in DMEM/10% FCS. After 24 hours, when confluent monolayers had formed, the medium was removed and 3000 cerebellar neurons isolated from post-natal day 2-3 rats were plated into each well in SATO media (Doherty et al., Nature 343:464-466, 1990) supplemented with 2% FCS. All of the test peptides were added immediately before the neurons as a 2× stock prepared in SATO/2% FCS. The co-cultures were maintained for 16-18 hours, at which time they were fixed and immunostained for GAP-43 which is present only in the neurons and delineates the neuritic processes. The mean length of the longest neurite per cell was measured for 150-200 neurons sampled in replicate cultures as previously described (Williams et al., Neuron 13:583-594, 1994). […] Dose-response curves were evaluated and the EC50 values determined.
Other cell adhesion molecules, such as L1, can stimulate neurite outgrowth, and this response shares the same downstream signaling steps as the N-cadherin response. […] As previously reported, L1 stimulated neurite outgrowth from cerebellar neurons.

In assay [3] the test system is SKOV3 tumors. Put plainly: Induction of apoptosis in SKOV3 tumors in nude mice (Apoptag). The format is in vivo, mouse. As for the experimental part: SKOV3 cells (ATCC) were grown to 70% confluence in Minimum Essential Medium (Life Technologies, Grand Island, N.Y.) supplemented with 10% Fetal Bovine Serum (Wisent, St. Bruno, Quebec) in a humidified atmosphere containing 5% CO2. Cells were then dissociated with 0.02% PBS/EDTA. Total cell count and viable cell number was determined by trypan blue stain and a hemacytometer.
Approximately 1×10^7 cells were resuspended in 400 μl saline and injected in 6-week-old CD-1 nude mice (female, Charles River) subcutaneously. After 20 days of continuous tumor growth, tumor size was about 4.0 mm. The tumor-bearing animals were then injected intraperitoneally every day with 20 mg/kg of the representative peptide modulating agent N—Ac-CHAVC-NH2 (SEQ ID NO:10) or saline, for 48 hours, 96 hours, 120 hours or 168 hours. […]
Tumor tissue was dissected and fixed in PBS with 4% paraformaldehyde for 48 hours. Specimens were then dehydrated in a series of alcohol incubations, and embedded in paraffin wax. Apoptosis was assessed using the Apoptag kit (Intergen, Purchase N.Y.) according to the manufacturer's protocol, with slight modifications. More specifically, sections were deparaffinized and re-hydrated. After a five minute wash with PBS, the slides were treated with 20 μg/ml Proteinase K in PBS for 15 minutes at room temperature. This was followed by two washes with distilled water (2 minutes each wash). […]

For assay [4], the system named is MKL-F cells, breast cancer tumors. The experiment in a line: Breast cancer tumors grown in nude mice. Format: in vivo, mouse. Here is the method: Breast cancer tumors were also grown in nude mice, as described above. After implanting tumor cells into the mammary fat pad, mice were injected once daily for four days with either the representative modulating agent N—Ac-CHAVC-NH2 (SEQ ID NO:10) or saline as a control. Mice were sacrificed 24 hours after the last injection, and tumors were photographed. […] These tumors are well vascularized.
MKL-F cells were injected into mammary fat pad, as described above, and the tumors were grown for 21 days before injection. Mice were then injected once daily for four days with either 20 mg/kg of the representative modulating agent N—Ac-CHAVC-NH2 (SEQ ID NO:10) or saline as a control. Mice were sacrificed 21 days after the last injection. Tumor volume was measured at day 18 following injection of cells, day 22 (following the first injection of modulating agent), and days 29, 32, 36, 39 and 42.

L1, sequence (P32004 20-1257): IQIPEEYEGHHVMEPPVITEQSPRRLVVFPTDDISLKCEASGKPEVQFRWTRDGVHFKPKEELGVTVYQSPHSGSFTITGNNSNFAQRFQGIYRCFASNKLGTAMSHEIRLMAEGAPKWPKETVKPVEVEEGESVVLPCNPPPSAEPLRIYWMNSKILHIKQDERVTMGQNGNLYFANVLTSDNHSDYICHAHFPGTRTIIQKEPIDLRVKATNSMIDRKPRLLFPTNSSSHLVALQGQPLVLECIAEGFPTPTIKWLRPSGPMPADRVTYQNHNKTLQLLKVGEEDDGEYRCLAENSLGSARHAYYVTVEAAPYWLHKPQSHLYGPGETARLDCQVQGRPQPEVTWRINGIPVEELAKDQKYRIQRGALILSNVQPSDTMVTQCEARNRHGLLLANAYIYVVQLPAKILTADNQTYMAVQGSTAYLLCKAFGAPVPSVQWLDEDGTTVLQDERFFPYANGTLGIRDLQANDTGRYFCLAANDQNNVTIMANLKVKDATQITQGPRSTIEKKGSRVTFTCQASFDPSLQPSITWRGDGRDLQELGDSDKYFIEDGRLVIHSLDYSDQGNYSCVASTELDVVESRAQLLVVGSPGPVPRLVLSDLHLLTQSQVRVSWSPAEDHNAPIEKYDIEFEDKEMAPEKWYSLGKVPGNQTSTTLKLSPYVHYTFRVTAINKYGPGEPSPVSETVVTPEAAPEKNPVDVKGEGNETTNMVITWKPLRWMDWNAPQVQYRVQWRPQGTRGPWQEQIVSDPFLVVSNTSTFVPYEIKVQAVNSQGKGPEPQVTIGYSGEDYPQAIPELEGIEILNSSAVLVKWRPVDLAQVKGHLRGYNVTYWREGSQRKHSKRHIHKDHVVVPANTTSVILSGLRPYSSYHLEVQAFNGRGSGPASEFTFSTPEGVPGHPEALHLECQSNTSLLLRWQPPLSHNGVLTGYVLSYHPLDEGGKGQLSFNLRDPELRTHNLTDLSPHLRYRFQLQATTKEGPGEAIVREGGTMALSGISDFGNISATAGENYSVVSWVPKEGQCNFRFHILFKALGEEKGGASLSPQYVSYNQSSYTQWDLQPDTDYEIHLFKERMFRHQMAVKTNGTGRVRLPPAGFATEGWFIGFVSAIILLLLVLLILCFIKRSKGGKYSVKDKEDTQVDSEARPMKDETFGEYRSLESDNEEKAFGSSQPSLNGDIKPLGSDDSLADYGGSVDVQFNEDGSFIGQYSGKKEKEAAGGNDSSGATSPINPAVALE

On to `CC(=O)N[C@H]1CSSC[C@@H](C(N)=O)NC(=O)[C@H](C(C)C)NC(=O)[C@H](C)NC(=O)[C@H](Cc2c[nH]cn2)NC1=O` [N—Ac—CHAVC—NH2, N-Ac-Cys-His-Ala-Val-Cys-NH2], for which, in assay [1], the “aggregation of vascular smooth muscle cells” value is recorded as “inhibits aggregation”. For the same compound, the “increase in apoptosis and cell death in aggregates” value in assay [1] (24 hr, n=4, p<0.05) is given as 2 fold. Further, in assay [2], the inhibition at 125 µg/mL was determined as 41.6 ± 8.6%. Further, the “apoptotic cells in tumor sections” value in assay [3] (20 mg/kg ip every day for 48, 96, 120 or 168 hours) is “show an increase in apoptotic cells with longer treatment”; in assay [3] (20 mg/kg once daily for four days, sacrificed 11 days after the last treatment), “extensive area of apoptotic cells within the center of the tumor”. Besides, the breast tumor growth result in assay [4] (once daily for four days) is reported as “slow tumor growth”. The “appearance of breast tumors (blood vessels)” value in assay [4] (once daily for four days (20 mg/kg), 24 hours after last injection) is given as “extensive rupturing of blood vessels”.
